# Assays:
# [1] = target: T1, CYP2B6 (Homo sapiens, UniProt P20813); assay: Inhibition of cytochrome P450, 2B6; format: in vitro ADME; details: CYP2B6 enzyme, pH 7.4, compound concentration 10 μM, read-out: CYP inhibition/% 2B6
# T1 sequence (P20813 1-491): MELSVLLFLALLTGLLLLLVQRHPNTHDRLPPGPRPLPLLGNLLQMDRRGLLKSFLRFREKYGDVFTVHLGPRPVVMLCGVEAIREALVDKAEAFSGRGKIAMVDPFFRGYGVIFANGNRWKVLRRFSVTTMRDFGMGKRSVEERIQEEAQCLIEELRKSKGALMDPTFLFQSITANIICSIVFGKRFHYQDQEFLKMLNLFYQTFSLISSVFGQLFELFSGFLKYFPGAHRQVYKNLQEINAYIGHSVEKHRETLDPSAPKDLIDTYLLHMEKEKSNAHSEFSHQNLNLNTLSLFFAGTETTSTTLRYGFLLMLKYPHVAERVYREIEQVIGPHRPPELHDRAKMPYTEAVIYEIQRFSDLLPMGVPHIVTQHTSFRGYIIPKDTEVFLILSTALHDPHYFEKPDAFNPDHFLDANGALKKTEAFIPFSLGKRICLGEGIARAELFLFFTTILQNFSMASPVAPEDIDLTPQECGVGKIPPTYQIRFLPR
# Description: Enzymatic experiments were performed to quantify the inhibition of CYP450 enzyme activity of each isoform of CYP450 by small molecule inhibitors through fluorescence generated by the oxidation of the substrate by cytochrome P450. […] The Solution B composition used for the experiment was: 40 U/mL G6PDH (Sigma-aldrich, Cat #G6378). The substrate mix was 0.05× Solution A, 0.01× Solution B, 50 mM Potassium Phosphate, 0.01 mM BOMCC/0.01 mM EOMCC/0.001 mM DBOMF. […] The data were analyzed and processed using GraphPad Prism 6 software to obtain IC50 values.
# [2] = target: T2, hERG potassium channel (Homo sapiens, UniProt Q12809); assay: hERG potassium channel inhibition assay (patch clamp, CHO hERG cells); format: cell-based; details: CHO cells overexpressing hERG potassium channel, whole cell patch clamp
# T2 construct: expressed in transfected cells; host or cells: CHO (Chinese hamster ovary) stably transfected cell line
# T2 sequence (Q12809 whole entry): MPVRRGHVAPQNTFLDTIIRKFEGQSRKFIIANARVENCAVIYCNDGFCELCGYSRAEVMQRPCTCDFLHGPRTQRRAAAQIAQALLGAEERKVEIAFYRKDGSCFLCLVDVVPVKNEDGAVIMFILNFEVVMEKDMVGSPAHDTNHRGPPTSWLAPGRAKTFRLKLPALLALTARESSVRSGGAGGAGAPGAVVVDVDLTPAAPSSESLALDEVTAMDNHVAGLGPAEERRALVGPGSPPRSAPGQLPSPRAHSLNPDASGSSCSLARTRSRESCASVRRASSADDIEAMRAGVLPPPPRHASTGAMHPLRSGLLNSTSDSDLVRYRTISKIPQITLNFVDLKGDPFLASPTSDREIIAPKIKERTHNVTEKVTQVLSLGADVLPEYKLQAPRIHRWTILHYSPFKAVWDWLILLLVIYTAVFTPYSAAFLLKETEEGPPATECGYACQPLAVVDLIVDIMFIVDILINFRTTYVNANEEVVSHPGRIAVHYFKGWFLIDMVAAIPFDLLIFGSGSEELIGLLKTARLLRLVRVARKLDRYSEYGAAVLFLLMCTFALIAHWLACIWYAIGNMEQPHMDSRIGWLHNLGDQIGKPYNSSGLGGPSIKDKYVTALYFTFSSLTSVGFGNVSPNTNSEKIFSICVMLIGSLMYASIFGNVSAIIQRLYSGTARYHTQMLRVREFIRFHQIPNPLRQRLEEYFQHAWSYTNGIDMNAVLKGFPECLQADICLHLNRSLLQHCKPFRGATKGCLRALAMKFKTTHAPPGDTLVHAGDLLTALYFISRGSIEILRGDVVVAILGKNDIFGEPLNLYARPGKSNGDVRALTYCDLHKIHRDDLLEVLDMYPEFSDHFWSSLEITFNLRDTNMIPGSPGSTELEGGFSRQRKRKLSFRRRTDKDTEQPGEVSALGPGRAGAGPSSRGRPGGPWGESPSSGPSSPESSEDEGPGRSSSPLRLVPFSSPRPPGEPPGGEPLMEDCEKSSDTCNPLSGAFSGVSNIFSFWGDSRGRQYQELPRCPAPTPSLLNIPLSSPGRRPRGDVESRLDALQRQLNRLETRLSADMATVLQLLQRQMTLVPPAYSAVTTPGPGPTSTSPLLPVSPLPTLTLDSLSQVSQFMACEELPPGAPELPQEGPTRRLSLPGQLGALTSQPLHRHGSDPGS
# Description: The cell line used for the patch clamp assay was a 10th generation CHO cell overexpressing hERG potassium channel cDNA.
# CHO hERG cells were cultured in Petri dishes or flasks at 37° C. in a 5% CO2 incubator. Cells were dropped onto circular slides 24-48 hours prior to electrophysiological experiments and cultured in cell culture medium and used for experiments after the cells had been adhered.
# Compound powders are dissolved in the extracellular solution and are subjected to a routine 5 to 10 minute sonication and shaking to ensure complete dissolution of the compound.
# The final concentrations of compounds used for electrophysiological assays were 5, 20 μM and the final concentration of DMSO was 0.1%.
# Cell membrane currents were recorded using a HEKA EPC-10 USB patch-clamp amplifier (HEKA Elektronik, Germany).
# 1) A coverslip with a large number of uniformly growing individual CHO hERG cells on its surface was taken. Place in a continuous recording cell on an inverted microscope, perfused with extracellular fluid (approximately 1 ml per minute) and recorded continuously, waiting for the current to stabilize. […]
# 3) The extracellular solution containing the drug to be tested was then perfused and recorded until the inhibitory effect of the drug on the hERG current reached a steady state, at which point the peak tail current was the post-drug current value. […]
compound,measurement,setting,value
CN1CCN(c2ccc(Nc3ncc4cnn(-c5cccc(N=S(C)(C)=O)n5)c4n3)cc2)CC1 [Compound 1],"inhibition at 30 min, 10 µM",[1],4.38%
same,inhibition at 5 µM,[2]; 5 μM,5.07%
same,inhibition at 20 µM,[2]; 20 μM,15.1%
